Experiments:
[1] = target: 3',5'-cyclic-AMP phosphodiesterase 4A (Homo sapiens, UniProt P27815); format: functional
Thromboxane A2 receptor = target: T1, Thromboxane A2 receptor (Homo sapiens, UniProt P21731); format: functional, cell-based
T1 sequence (P21731 whole entry): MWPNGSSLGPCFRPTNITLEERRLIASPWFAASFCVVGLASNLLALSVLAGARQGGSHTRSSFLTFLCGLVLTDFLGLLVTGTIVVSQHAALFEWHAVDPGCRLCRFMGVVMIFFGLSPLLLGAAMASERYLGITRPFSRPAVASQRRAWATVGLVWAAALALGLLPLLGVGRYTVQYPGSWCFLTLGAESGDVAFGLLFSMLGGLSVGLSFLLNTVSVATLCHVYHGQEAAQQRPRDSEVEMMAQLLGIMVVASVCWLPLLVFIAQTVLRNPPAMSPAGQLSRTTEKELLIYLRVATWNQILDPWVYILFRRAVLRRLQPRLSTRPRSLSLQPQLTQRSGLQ

[2] = target: Prostaglandin G/H synthase 1 (Homo sapiens, UniProt P23219); format: functional
Chain of Prostaglandin G/H synthase 1 (P23219 whole entry): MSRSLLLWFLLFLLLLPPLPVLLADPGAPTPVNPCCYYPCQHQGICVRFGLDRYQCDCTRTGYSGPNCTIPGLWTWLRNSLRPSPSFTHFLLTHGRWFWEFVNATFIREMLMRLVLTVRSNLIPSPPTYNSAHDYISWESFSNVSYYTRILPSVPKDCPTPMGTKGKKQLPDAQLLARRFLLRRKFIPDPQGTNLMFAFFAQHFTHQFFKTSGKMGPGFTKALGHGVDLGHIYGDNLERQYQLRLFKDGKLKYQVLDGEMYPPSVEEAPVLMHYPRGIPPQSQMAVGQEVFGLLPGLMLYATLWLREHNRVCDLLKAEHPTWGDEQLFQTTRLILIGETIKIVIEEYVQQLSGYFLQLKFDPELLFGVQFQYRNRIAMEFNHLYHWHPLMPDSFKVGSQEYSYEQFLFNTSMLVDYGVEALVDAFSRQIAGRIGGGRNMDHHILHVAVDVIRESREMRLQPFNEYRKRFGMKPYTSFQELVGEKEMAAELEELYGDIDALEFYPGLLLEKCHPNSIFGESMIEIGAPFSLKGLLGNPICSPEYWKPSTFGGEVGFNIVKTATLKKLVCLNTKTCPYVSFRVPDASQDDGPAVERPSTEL

[3] = target: T2, Amine oxidase [flavin-containing] A (Homo sapiens, UniProt P21397); format: functional
T2 sequence (P21397 whole entry): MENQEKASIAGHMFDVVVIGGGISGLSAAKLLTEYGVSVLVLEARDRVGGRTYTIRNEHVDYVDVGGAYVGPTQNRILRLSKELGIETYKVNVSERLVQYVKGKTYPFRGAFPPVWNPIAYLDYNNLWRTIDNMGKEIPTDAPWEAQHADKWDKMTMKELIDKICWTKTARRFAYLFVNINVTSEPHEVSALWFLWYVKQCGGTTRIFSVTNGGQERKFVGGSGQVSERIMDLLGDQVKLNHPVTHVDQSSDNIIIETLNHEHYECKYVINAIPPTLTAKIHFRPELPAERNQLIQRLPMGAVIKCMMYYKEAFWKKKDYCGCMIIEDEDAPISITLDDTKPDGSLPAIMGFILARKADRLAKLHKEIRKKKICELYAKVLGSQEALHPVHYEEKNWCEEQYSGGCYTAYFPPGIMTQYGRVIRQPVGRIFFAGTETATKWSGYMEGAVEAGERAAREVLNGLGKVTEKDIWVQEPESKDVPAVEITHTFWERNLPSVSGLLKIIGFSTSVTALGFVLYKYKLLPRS

[4] = target: T3, Muscarinic acetylcholine receptor M2 (Homo sapiens, UniProt P08172)
T3 sequence (P08172 whole entry): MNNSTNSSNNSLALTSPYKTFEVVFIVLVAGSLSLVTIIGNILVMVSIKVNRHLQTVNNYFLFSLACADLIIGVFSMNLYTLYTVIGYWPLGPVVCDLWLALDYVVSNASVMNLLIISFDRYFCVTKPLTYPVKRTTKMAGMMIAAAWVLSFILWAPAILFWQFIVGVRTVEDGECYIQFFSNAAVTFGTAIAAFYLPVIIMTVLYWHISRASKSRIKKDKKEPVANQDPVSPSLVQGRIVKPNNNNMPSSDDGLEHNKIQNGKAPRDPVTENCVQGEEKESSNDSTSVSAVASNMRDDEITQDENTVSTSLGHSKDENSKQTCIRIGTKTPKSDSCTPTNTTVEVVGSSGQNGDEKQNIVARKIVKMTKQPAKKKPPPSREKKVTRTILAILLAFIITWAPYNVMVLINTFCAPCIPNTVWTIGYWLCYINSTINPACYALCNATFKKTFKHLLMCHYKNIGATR

[5] = target: T4, 5-hydroxytryptamine receptor 1A (Homo sapiens, UniProt P08908)
T4 sequence (P08908 whole entry): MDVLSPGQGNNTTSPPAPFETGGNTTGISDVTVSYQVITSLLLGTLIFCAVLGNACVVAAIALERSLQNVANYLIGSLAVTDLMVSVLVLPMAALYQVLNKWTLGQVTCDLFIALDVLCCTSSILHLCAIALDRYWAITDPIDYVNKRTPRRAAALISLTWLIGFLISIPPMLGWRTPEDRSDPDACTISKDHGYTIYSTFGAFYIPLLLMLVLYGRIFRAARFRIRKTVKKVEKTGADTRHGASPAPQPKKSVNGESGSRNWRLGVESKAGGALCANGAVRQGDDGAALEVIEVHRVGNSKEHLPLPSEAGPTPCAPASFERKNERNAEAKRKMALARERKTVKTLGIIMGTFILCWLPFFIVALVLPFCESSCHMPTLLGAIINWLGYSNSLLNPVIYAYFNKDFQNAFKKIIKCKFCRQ

Acetylcholinesterase = Acetylcholinesterase (Homo sapiens, UniProt P22303); format: functional
Chain of Acetylcholinesterase (P22303 whole entry): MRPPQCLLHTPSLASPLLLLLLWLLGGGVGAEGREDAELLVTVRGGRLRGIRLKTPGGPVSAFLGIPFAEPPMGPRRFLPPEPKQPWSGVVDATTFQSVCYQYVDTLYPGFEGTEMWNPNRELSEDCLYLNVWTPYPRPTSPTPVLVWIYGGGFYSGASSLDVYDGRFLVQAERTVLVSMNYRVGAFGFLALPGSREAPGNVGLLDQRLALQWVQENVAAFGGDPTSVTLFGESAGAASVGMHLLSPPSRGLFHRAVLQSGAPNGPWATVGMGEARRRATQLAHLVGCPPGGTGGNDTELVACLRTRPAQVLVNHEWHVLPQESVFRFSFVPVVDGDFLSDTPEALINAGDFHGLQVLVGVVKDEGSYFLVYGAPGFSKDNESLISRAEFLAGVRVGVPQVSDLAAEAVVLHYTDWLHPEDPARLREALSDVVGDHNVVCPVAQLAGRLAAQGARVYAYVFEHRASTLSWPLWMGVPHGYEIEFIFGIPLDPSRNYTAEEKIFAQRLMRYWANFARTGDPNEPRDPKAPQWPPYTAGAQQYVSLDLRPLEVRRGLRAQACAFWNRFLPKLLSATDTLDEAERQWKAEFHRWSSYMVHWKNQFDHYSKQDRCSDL
Further: assay procedure not described here.

Chain of 3',5'-cyclic-AMP phosphodiesterase 4A (P27815 whole entry): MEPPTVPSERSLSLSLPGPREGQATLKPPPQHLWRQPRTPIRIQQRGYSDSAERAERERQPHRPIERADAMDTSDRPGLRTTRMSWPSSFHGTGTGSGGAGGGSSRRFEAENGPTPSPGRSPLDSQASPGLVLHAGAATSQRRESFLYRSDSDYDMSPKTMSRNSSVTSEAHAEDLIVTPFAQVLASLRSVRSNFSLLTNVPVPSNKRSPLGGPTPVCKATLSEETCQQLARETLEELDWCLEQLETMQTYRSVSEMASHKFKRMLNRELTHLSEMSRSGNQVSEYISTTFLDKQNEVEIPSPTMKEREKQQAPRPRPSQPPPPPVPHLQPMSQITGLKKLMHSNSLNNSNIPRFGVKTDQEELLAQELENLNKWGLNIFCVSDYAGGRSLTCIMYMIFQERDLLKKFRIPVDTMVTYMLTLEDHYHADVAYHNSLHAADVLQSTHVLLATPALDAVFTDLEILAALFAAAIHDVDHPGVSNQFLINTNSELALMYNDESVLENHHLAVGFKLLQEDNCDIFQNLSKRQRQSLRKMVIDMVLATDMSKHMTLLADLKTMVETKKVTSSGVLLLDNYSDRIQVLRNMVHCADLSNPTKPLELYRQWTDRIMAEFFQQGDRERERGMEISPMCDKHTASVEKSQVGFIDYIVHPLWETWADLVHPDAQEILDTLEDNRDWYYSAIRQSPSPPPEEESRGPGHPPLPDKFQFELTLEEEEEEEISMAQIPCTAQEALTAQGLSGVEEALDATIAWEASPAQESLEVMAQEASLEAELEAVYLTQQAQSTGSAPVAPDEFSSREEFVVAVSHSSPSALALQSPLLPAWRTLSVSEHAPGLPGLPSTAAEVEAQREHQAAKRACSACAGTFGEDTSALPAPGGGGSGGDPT

Structure (SMILES) | AC50 [1] | AC50 (Thromboxane A2 receptor) | AC50 [2] | AC50 [3] | AC50 [4] | AC50 [5] | AC50 (Acetylcholinesterase)
CC(=O)NCCCCCC(=O)O [ACEXAMIC ACID] | > 30 µM | > 30 µM | > 30 µM | > 30 µM | > 30 µM | > 30 µM | > 30 µM
C=C(C)CNc1ccc(C(C)C(=O)O)cc1 (stereo not given) [ALMINOPROFEN] | > 30 µM | > 30 µM | > 30 µM | > 30 µM | > 30 µM | > 30 µM | > 30 µM
C[C@H]1CN(C[C@H](Cc2ccccc2)C(=O)NCC(=O)O)CC[C@@]1(C)c1cccc(O)c1 [ALVIMOPAN] | > 30 µM | > 30 µM | > 30 µM | > 30 µM | > 30 µM | > 30 µM | > 30 µM
O=C(O)c1ccccc1 [BENZOIC ACID] | > 30 µM | > 30 µM | > 30 µM | > 30 µM | > 30 µM | > 30 µM | > 30 µM
C[C@H]1O[C@@H](O[C@H]2CC[C@@]3(C)[C@H](CC[C@@H]4[C@@H]3C[C@@H](O)[C@]3(C)[C@@H](C5=CC(=O)OC5)CC[C@]43O)C2)C[C@H](O)[C@@H]1O[C@H]1C[C@H](O)[C@H](O[C@H]2C[C@H](O)[C@H](O[C@@H]3O[C@H](CO)[C@@H](O)[C@H](O)[C@H]3O)[C@@H](C)O2)[C@@H](C)O1 [DESLANOSIDE] | > 30 µM | > 30 µM | > 30 µM | > 30 µM | > 30 µM | > 30 µM | > 30 µM
CN[C@@H]1[C@H](O[C@H]2[C@H](O[C@H]3[C@H](O)[C@@H](O)[C@H](NC(=N)N)[C@@H](O)[C@@H]3NC(=N)N)O[C@@H](C)[C@]2(O)CO)O[C@@H](CO)[C@H](O)[C@H]1O [DIHYDROSTREPTOMYCIN] | > 30 µM | > 30 µM | > 30 µM | > 30 µM | > 30 µM | > 30 µM | > 30 µM
CC[C@H]1OC(=O)[C@H](C)[C@@H](O[C@H]2C[C@@](C)(OC)[C@@H](O)[C@H](C)O2)[C@H](C)[C@@H](O[C@@H]2O[C@H](C)C[C@H](N(C)C)[C@H]2O)[C@](C)(O)C[C@@H](C)[C@@H]2N[C@@H](COCCOC)O[C@H]([C@H]2C)[C@]1(C)O [DIRITHROMYCIN] | > 30 µM | > 30 µM | 9.63 µM | > 30 µM | > 30 µM | > 30 µM | > 30 µM
CCCCc1oc2ccc(NS(C)(=O)=O)cc2c1C(=O)c1ccc(OCCCN(CCCC)CCCC)cc1 [DRONEDARONE] | 16.8 µM | 14.7 µM | > 30 µM | > 30 µM | 2.39 µM | 1.72 µM | > 30 µM
CC(C(=O)O)c1cccc(Oc2ccccc2)c1 (stereo not given) [FENOPROFEN] | > 30 µM | > 30 µM | 1.52 µM | > 30 µM | > 30 µM | > 30 µM | > 30 µM
CC(C)C(=O)Oc1ccc(CO)cc1[C@H](CCN(C(C)C)C(C)C)c1ccccc1 [FESOTERODINE] | > 30 µM | > 30 µM | > 30 µM | > 30 µM | 0.414 µM | > 30 µM | > 30 µM
CC1(C)O[C@@H]2C[C@H]3[C@@H]4C[C@H](F)C5=CC(=O)C=C[C@]5(C)[C@@]4(F)[C@@H](O)C[C@]3(C)[C@]2(C(=O)CO)O1 [FLUOCINOLONE ACETONIDE] | > 30 µM | > 30 µM | > 30 µM | > 30 µM | > 30 µM | > 30 µM | > 30 µM
O=C(O)P(=O)(O)O [FOSCARNET] | > 30 µM | > 30 µM | > 30 µM | > 30 µM | > 30 µM | > 30 µM | > 30 µM
C#C[C@]1(O)C=C[C@H]2[C@@H]3CCC4=CC(=O)CC[C@@H]4[C@H]3CC[C@@]21CC [GESTODENE] | > 30 µM | > 30 µM | > 30 µM | > 30 µM | > 30 µM | > 30 µM | > 30 µM
N=C(N)N/N=C/c1c(Cl)cccc1Cl [GUANABENZ] | > 30 µM | 22.2 µM | > 30 µM | 3.21 µM | > 30 µM | 0.604 µM | > 30 µM
C[N+](C)(CCCCCC[N+](C)(C)C1c2ccccc2-c2ccccc21)C1c2ccccc2-c2ccccc21 [HEXAFLUORENIUM] | > 30 µM | > 30 µM | > 30 µM | > 30 µM | 0.514 µM | 0.868 µM | 0.171 µM
CCCCC(CC)CN1CN(CC(CC)CCCC)CC(C)(N)C1 (stereo not given) [HEXETIDINE] | > 30 µM | > 30 µM | > 30 µM | > 30 µM | 3.18 µM | 3.44 µM | > 30 µM
Cc1cc(=O)oc2cc(O)ccc12 [HYMECROMONE] | > 30 µM | > 30 µM | > 30 µM | > 30 µM | > 30 µM | > 30 µM | > 30 µM
COc1c2occc2c(OC)c2c(=O)cc(C)oc12 [KHELLIN] | 2.85 µM | > 30 µM | > 30 µM | > 30 µM | > 30 µM | > 30 µM | > 30 µM
CC(C)[C@@H]1CC[C@@H](C)C[C@H]1O [LEVOMENTHOL] | > 30 µM | > 30 µM | > 30 µM | > 30 µM | > 30 µM | > 30 µM | > 30 µM
COC(=O)[C@@H](N)Cc1ccc(O)c(O)c1 [MELEVODOPA] | > 30 µM | > 30 µM | > 30 µM | > 30 µM | > 30 µM | > 30 µM | > 30 µM
C=N[C@@H](C(=O)N[C@@H]1C(=O)N2[C@@H]1SC(C)(C)[C@@H]2C(=O)O)c1ccccc1 [METAMPICILLIN] | > 30 µM | > 30 µM | 9.26 µM | > 30 µM | > 30 µM | > 30 µM | > 30 µM
O=C(NNCS(=O)(=O)O)c1ccncc1 [METHANIAZIDE] | > 30 µM | > 30 µM | > 30 µM | > 30 µM | > 30 µM | > 30 µM | > 30 µM
Cc1cc(=O)[nH]c(=S)[nH]1 [METHYLTHIOURACIL] | > 30 µM | > 30 µM | 13.1 µM | > 30 µM | > 30 µM | > 30 µM | > 30 µM
CN(C)c1ccc(O)c2c1C[C@H]1C[C@H]3[C@H](N(C)C)C(O)=C(C(N)=O)C(=O)[C@@]3(O)C(O)=C1C2=O [MINOCYCLINE] | > 30 µM | > 30 µM | > 30 µM | > 30 µM | > 10 µM | > 30 µM | > 30 µM
CCNC(=O)/C=C(C)/C=C/C=C(C)/C=C/c1c(C)cc(OC)c(C)c1C [MOTRETINIDE] | > 30 µM | > 30 µM | 6.95 µM | > 30 µM | > 30 µM | > 30 µM | > 30 µM

— ChEMBL document CHEMBL5291721, “A preclinical secondary pharmacology resource illuminates target-adverse drug reaction associations of marketed drugs” (Nat Commun, 2023)
